Reference: patent US9150579B2, “Selective PI3K delta inhibitors” (Rhizen Pharmaceuticals SA, priority 2012, dated 2015)
Read-outs that look alike come from different tables or passages of the source.

Legend:
[1] = Metabolic stability in human liver microsomes; type: in vitro ADME; conditions: 1 μM test item, 60 minutes, NADPH
Procedure: (§1) Metabolic stability studies were conducted using mouse, rat, and human liver microsomes. The protocol for the studies with mouse, rat, and human liver microsomes (all from BD Gentest, USA) is provided below. In brief, 0.4 mg protein was preincubated with 2 mM NADPH (cofactor) in phosphate buffer (pH˜7.4) for 15 min at 37° C. and then added with 1 μM test item and incubated further for 60 minutes in triplicate. The reaction mixture was terminated with methanol containing an internal standard and centrifuged further to analyze the test item remaining in the supernatant by LC-MS/MS. The percent parent compound remaining was calculated in comparison with similar samples terminated at 0 minutes.

[2] = biological target: PI3K β (Homo sapiens (Human), UniProt P42338); experiment: Assay 1: Fluorescent (HTRF) determination of PI3K enzyme activity, beta; type: biochemical
Procedure: (§2) The homogenous time resolved fluorescence (HTRF) assay allows detection of 3,4,5-triphosphate (PIP3) formed as a result of phosphorylation of phosphotidylinositol 4,5-biphosphate (PIP2) by PI3K isoforms such as α, β, γ or δ.
(§3) PI3K isoform activity for α, β, γ or δ was determined using a PI3K human HTRF™ Assay Kit (Millipore, Billerica, Mass.) with modifications. All incubations were carried out at room temperature. […] After the initial incubation, 5 μl/well of 400 μM ATP was added and incubated for an additional 30 minutes. Reaction was terminated by adding 5 μl/well stop solution (Millipore, Billerica, Mass.). Five microliters of detection mix (Millipore, Billerica, Mass.) were then added to each well and was incubated for 6-18 h in the dark.

[3] = biological target: PI3K delta (Homo sapiens (Human), UniProt O00329); experiment: Assay 1: Fluorescent (HTRF) determination of PI3K enzyme activity, delta; type: biochemical
Procedure: as §2
as §3, with “dark. HRTF ratio was measured on a microplate reader (BMG Labtech., Germany) at an excitation wavelength of 337 nm and emission wavelengths of 665 and 620 nm with an integration time of 400 μsec.” for “dark.”

[4] = biological target: PI3K γ (Homo sapiens (Human), UniProt P48736); experiment: Assay 1: Fluorescent (HTRF) determination of PI3K enzyme activity, gamma; type: biochemical
Procedure: as §2, §3

[5] = Metabolic stability in mouse liver microsomes; type: in vitro ADME; conditions: 1 μM test item, 60 minutes, NADPH
Procedure: as §1

[6] = biological target: PI3K α (Homo sapiens (Human), UniProt P42336); experiment: Assay 1: Fluorescent (HTRF) determination of PI3K enzyme activity, alpha; type: biochemical
Procedure: as §2, §3

[7] = Metabolic stability in rat liver microsomes; type: in vitro ADME; conditions: 1 μM test item, 60 minutes, NADPH
Procedure: as §1

[8] = Oral pharmacokinetics in rats; type: in vivo
Procedure: The protocol for the pharmacokinetics studies in rat is provided below.
All animals were fasted overnight (12 hours) before dosing and continued till 4.0 hours after administration of test item. Test item formulations were prepared in 1% Tween 80 and 99% media (0.5% Methyl cellulose, 4000 cPs, pH 2.2). The blood samples (150 μl from each animal) were collected from the orbital sinus, and placed into a micro centrifuge tube containing disodium EDTA as an anticoagulant. Blood samples were centrifuged immediately with a speed of 1000 g for 10 min at 4° C. and separated plasma samples were frozen at below −80° C. and stored until analysis. The concentrations of test item in all formulation were analyzed by HPLC. The plasma concentrations of test item in all samples were analyzed by LC-MS/MS. Pharmacokinetic parameters viz. Cmax, AUC0-t, Tmax, and t1/2 were estimated by using WinNonlin software.

[9] = Oral pharmacokinetics in dogs; type: in vivo

PI3K γ, sequence (P48736 whole entry): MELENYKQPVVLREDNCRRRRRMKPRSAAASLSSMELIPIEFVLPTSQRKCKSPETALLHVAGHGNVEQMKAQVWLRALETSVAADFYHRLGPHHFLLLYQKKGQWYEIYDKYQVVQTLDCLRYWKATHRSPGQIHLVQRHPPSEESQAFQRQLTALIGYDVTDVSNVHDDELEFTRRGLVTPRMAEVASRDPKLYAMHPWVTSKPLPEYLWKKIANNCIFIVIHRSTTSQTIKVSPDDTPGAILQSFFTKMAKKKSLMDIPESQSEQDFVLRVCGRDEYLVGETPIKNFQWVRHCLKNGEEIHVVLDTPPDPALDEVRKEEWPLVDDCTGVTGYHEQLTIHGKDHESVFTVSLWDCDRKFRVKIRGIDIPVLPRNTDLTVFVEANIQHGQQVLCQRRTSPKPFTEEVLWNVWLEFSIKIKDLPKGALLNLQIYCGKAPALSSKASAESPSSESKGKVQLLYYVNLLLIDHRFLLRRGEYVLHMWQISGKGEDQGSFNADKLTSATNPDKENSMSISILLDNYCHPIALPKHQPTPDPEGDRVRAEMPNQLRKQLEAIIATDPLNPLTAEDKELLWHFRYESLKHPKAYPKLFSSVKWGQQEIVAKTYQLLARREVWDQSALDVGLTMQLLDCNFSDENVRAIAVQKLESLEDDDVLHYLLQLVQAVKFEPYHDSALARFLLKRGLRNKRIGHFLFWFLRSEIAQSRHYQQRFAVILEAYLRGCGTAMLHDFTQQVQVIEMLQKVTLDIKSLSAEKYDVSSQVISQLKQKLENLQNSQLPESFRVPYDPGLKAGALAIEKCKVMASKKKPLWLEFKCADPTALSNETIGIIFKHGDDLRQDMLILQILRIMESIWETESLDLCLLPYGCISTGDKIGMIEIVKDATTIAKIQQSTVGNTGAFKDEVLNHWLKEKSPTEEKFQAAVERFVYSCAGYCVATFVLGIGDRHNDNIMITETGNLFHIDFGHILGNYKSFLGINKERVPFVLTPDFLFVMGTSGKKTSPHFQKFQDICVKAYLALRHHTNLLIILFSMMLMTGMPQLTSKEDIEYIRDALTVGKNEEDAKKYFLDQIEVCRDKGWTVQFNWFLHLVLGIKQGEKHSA
PI3K α, sequence (P42336 whole entry): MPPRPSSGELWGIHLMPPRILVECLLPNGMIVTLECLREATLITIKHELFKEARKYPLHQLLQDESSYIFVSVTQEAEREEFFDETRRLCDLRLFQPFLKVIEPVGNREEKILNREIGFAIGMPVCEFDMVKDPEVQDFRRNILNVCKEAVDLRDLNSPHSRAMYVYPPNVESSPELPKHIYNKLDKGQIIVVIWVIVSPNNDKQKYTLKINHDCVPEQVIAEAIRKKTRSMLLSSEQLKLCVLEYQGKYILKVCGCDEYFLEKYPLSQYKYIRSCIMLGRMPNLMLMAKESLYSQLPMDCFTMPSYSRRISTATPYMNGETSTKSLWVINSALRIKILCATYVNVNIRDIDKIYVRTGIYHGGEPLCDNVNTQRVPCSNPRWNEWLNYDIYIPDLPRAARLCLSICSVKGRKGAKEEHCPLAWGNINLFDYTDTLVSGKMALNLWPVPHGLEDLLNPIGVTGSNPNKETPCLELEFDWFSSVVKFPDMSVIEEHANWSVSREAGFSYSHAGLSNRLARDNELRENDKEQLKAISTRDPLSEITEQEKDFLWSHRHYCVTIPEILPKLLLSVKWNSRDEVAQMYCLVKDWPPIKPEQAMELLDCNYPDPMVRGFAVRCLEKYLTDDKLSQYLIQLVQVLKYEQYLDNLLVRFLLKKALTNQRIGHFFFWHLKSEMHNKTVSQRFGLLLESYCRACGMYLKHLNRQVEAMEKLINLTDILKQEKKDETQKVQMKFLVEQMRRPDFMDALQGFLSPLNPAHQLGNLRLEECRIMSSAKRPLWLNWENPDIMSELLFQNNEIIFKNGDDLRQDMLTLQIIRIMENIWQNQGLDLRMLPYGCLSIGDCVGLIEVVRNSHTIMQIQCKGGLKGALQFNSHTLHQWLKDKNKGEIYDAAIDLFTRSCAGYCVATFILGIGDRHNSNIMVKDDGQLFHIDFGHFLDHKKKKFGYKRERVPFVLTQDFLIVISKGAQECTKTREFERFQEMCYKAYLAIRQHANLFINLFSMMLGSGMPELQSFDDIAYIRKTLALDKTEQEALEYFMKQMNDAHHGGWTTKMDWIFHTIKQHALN
PI3K α, sequence (P27986 whole entry partner): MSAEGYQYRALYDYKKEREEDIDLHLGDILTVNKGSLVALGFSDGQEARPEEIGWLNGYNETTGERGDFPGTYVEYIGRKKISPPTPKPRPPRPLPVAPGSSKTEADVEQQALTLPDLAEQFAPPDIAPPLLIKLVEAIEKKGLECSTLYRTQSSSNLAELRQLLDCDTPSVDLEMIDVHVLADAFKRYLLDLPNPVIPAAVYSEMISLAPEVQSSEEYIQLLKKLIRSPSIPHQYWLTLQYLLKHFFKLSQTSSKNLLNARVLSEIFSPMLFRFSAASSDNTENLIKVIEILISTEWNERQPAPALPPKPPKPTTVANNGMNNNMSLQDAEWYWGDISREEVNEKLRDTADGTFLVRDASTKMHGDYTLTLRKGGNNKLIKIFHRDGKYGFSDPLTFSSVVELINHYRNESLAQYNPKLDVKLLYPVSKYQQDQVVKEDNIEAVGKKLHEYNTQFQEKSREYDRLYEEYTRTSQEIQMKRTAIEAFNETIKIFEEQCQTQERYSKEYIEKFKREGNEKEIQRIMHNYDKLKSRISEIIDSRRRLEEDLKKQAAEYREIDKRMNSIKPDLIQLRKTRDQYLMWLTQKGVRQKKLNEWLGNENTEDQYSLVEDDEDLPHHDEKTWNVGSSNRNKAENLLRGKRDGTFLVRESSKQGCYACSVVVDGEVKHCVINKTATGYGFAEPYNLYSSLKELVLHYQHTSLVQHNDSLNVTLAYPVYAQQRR
PI3K delta, sequence (O00329 whole entry): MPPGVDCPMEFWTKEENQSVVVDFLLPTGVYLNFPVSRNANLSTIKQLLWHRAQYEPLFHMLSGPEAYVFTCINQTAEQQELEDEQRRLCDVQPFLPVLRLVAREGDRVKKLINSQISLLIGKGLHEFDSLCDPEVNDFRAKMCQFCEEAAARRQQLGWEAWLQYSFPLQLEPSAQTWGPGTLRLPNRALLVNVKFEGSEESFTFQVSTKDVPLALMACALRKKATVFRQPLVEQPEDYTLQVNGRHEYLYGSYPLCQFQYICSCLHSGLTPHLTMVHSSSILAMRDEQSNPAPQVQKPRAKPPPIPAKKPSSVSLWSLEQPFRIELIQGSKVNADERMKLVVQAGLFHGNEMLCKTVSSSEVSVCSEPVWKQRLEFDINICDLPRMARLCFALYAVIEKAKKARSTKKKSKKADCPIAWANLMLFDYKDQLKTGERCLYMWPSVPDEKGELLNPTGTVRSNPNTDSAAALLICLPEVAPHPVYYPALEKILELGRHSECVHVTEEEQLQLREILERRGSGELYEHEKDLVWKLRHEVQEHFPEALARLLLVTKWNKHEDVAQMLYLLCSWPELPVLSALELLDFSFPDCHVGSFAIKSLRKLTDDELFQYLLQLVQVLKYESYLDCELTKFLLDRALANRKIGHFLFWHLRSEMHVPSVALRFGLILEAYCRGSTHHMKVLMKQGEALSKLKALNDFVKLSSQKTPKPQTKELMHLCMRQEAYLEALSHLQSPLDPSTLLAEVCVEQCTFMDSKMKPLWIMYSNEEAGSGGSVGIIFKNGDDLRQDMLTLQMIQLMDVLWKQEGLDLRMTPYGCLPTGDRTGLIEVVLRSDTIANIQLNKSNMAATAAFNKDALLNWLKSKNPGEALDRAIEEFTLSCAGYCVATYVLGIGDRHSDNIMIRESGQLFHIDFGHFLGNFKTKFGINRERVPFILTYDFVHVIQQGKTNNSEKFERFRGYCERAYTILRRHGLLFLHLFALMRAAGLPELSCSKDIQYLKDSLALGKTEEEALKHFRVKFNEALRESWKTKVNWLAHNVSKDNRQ
PI3K delta, sequence (P27986 whole entry partner): as the sequence (P27986 whole entry partner) above
PI3K β, sequence (P42338 whole entry, canonical isoform): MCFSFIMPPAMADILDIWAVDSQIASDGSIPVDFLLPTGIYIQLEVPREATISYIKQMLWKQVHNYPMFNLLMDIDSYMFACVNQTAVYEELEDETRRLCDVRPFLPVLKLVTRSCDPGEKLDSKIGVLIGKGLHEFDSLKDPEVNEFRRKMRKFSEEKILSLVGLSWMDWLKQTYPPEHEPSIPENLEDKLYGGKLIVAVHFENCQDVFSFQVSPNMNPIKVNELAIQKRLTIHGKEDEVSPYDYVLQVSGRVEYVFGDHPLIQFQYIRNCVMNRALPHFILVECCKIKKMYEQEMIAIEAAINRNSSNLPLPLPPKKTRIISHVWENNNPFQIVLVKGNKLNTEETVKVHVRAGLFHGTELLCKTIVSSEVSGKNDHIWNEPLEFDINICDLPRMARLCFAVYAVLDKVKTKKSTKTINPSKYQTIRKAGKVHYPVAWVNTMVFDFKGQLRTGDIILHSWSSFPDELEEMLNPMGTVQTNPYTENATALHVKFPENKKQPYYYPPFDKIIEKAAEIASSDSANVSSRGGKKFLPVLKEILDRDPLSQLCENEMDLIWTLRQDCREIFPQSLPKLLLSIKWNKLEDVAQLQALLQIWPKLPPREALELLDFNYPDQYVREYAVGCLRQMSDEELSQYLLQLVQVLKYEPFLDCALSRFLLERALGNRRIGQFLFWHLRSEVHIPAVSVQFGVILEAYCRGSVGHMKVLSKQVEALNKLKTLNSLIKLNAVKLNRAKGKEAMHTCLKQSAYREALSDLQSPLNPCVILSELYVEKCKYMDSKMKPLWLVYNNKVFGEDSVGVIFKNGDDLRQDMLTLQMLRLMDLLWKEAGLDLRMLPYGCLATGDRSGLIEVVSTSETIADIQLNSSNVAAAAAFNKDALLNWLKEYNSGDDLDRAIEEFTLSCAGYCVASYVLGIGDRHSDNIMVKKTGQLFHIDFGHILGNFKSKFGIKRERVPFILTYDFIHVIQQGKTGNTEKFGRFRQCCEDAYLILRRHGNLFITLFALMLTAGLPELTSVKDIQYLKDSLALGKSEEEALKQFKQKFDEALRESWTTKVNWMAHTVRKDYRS
PI3K β, sequence (P27986 whole entry partner, canonical isoform): as the sequence (P27986 whole entry partner) above

| inhibition at 1 µM [2] [%] | IC50 [3] [µM] | inhibition at 1 µM [4] [%] | inhibition at 1 µM [6] [%] | IC50 ([3]; μM) [µM] | Structure (SMILES) | Metabolic stability in liver microsomes, Human (percent parent compound remaining) [1] [%] | Metabolic stability in liver microsomes, Mouse (percent parent compound remaining) [5] [%] | Metabolic stability in liver microsomes, Rat (percent parent compound remaining) [7] [%] | Cmax relative to free base of compound B1 [8] | area under the curve (AUC) relative to free base of compound B1 [8] | Cmax relative to free base of compound B1 [9] | area under the curve (AUC) relative to free base of compound B1 [9] |
| --- | --- | --- | --- | --- | --- | --- | --- | --- | --- | --- | --- | --- |
| 9.95 | 0.0373 | 55.9 | 2.63 | – | CC(C)Oc1ccc(-c2nn(C(C)c3oc4ccccc4c(=O)c3-c3cccc(F)c3)c3ncnc(N)c23)cc1F (racemic) [Compound A, 2-(1-(4-amino-3-(3-fluoro-4-isopropoxyphenyl)-1H-pyrazolo[3,4-d]pyrimidin-1-yl)ethyl)-3-(3-fluorophenyl)-4H-chromen-4-one] | 38.4 | 32.6 | 43.1 | – | – | – | – |
| – | – | – | – | – | CC(C)Oc1ccc(-c2nn(C(C)c3oc4ccc(F)cc4c(=O)c3-c3cccc(F)c3)c3ncnc(N)c23)cc1F (racemic) [Compound B, 2-(1-(4-amino-3-(3-fluoro-4-isopropoxyphenyl)-1H-pyrazolo[3,4-d]pyrimidin-1-yl)ethyl)-6-fluoro-3-(3-fluorophenyl)-4H-chromen-4-one] | 46.9 | 54.9 | 51.4 | – | – | – | – |
| 38.7 | – | 66.3 | 0.95 | > 10 | CC(C)Oc1ccc(-c2nn([C@H](C)c3oc4ccccc4c(=O)c3-c3cccc(F)c3)c3ncnc(N)c23)cc1F [Compound A2, (R)-2-(1-(4-amino-3-(3-fluoro-4-isopropoxyphenyl)-1H-pyrazolo[3,4-d]pyrimidin-1-yl)ethyl)-3-(3-fluorophenyl)-4H-chromen-4-one] | 11.4 | 34.7 | 44.2 | – | – | – | – |
| – | – | – | – | – | CC(C)Oc1ccc(-c2nn([C@H](C)c3oc4ccc(F)cc4c(=O)c3-c3cccc(F)c3)c3ncnc(N)c23)cc1F [Compound B2, (R)-2-(1-(4-amino-3-(3-fluoro-4-isopropoxyphenyl)-1H-pyrazolo[3,4-d]pyrimidin-1-yl)ethyl)-6-fluoro-3-(3-fluorophenyl)-4H-chromen-4-one] | 27.5 | 54.1 | 48.6 | – | – | – | – |
| – | – | – | – | – | CC(C)Oc1ccc(-c2nn([C@@H](C)c3oc4ccc(F)cc4c(=O)c3-c3cccc(F)c3)c3ncnc(N)c23)cc1F.Cc1ccc(S(=O)(=O)O)cc1 [PTSA salt of compound B1, (S)-2-(1-(4-amino-3-(3-fluoro-4-isopropoxyphenyl)-1H-pyrazolo[3,4-d]pyrimidin-1-yl)ethyl)-6-fluoro-3-(3-fluorophenyl)-4H-chromen-4-one 4-methylbenzenesulfonate] | – | – | – | about twice | nearly three times | more than twice | about four times |
